Entries after “also recorded” stand apart in the source; their conditions may differ. Structures can show the parent of a compound that is named as a salt.
Legend:
GST-VRK1 [1] = target: T1, GST-VRK1 (Homo sapiens, UniProt Q99986); assay: In vitro kinase assay, GST-VRK1 autophosphorylation; format: biochemical; settings: 5 µM ATP, average of three experiments, ± standard deviation, No inhibition is lack of effect at 100 µM; for IC50: read-out: IC50 (µM) GST-VRK1 Auto- phosphorylation
T1 construct: made in house
T1 sequence (Q99986 1-396): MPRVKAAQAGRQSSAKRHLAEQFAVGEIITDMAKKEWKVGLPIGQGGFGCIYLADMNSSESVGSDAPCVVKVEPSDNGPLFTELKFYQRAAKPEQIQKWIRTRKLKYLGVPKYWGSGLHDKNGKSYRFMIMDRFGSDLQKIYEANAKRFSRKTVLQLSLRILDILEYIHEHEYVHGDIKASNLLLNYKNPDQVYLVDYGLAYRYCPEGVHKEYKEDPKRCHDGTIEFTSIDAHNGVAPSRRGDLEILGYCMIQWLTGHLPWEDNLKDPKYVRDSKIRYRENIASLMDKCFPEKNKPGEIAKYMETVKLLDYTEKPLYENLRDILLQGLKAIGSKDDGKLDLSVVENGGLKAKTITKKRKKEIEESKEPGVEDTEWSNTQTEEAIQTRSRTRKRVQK

GST-VRK1 [2] = target: T1, GST-VRK1; assay: In vitro kinase assay, GST-VRK1 phosphorylation of histone H3; format: biochemical; settings: 5 µM ATP; average of three experiments, ± standard deviation; No inhibition is lack of effect at 100 µM
GST-VRK2A [3] = target: T2, GST-VRK2A (Homo sapiens, UniProt Q86Y07); assay: In vitro kinase assay, GST-VRK2A autophosphorylation; format: biochemical; settings: for IC50: read-out: IC50 (µM) GST-VRK2A Auto-phosphorylation
T2 construct: a full-length protein of 508 aminoacids (known as VRK2 and VRK2A); made in house; host or cells: E. coli BL21

GST-VRK2A [4] = target: T2, GST-VRK2A; assay: In vitro kinase assay, GST-VRK2A phosphorylation of histone H3; format: biochemical
VRK2A = target: T3, VRK2A (Homo sapiens, UniProt Q86Y07); assay: In vitro kinase assay, VRK2A kinase activity (autophosphorylation and H3 phosphorylation); format: biochemical; settings: for IC50 / Effect on VRK2 (VRK2A) kinase activity at 100 µM inhibitor (in words): 5 µM ATP; for IC50: H3 phosphorylation or autophosphorylation, read-out: Concentration giving fifty percent inhibition of VRK2A activity; for Effect on VRK2 (VRK2A) kinase activity at 100 µM inhibitor (in words): inhibitor 100 µM, autophosphorylation and H3 phosphorylation
T3 construct: a full-length protein of 508 aminoacids (known as VRK2 and VRK2A); made in house; host or cells: E. coli BL21

CHK2 = settings: Table S1, known target value; no reference given; read-out: Kinase target (IC50) CHK2; cited from earlier work
[5] = target: vaccinia virus B1R kinase (Vaccinia virus, UniProt P16913); format: biochemical; settings: p53 and histone H3 as substrates, ATP 5 µM
CK1 = settings: read-out: Concentration inhibiting CK1; cited from earlier work
S6K = settings: Table S1, known target value; no reference given; read-out: Kinase target (IC50) S6K; cited from earlier work
MSK1 = settings: Table S1, known target value; no reference given; read-out: Kinase target (IC50) MSK1; cited from earlier work
human VRK1 = target: T4, human VRK1 (Homo sapiens, UniProt Q99986); assay: In vitro kinase assay, VRK1 kinase activity (autophosphorylation and H3 phosphorylation); format: biochemical; settings: for Effect on VRK1 kinase activity at 100 µM inhibitor (in words): inhibitor 100 µM, 5 µM ATP, autophosphorylation and H3 phosphorylation
T4 construct: made in house
T4 sequence (Q99986 1-396): T1 sequence (Q99986 1-396)

DNA-PKcs = settings: Table S1, known target value; no reference given; read-out: Kinase target (IC50) DNA-PKcs; cited from earlier work
ATM = settings: Table S1, known target value; no reference given; read-out: Kinase target (IC50) ATM; cited from earlier work
DNA-PK = settings: Table S1, known target value; no reference given; read-out: Kinase target (IC50) DNA-PK; cited from earlier work
Mek1 = settings: Table S1, known target value; no reference given; read-out: Kinase target (IC50) Mek1; cited from earlier work
LCK = settings: read-out: Kinase target (IC50) LCK; Table S1, known target value; no reference given; cited from earlier work
FYN = settings: read-out: Kinase target (IC50) FYN; Table S1, known target value; no reference given; cited from earlier work
CK1δ = settings: read-out: Kinase target (IC50) CK1δ; Table S1, known target value; no reference given; cited from earlier work
PKC isoforms = settings: read-out: Reported fifty percent inhibition of PKC isoforms; cited from earlier work
GSK-3β = settings: Table S1, known target value; no reference given; read-out: Kinase target (IC50) GSK-3β; cited from earlier work
[6] = 5 µM ATP, average of three experiments, ± standard deviation, No inhibition is lack of effect at 100 µM

Compound | IC50 (µM) GST-VRK1 Auto- phosphorylation (GST-VRK1 [1]) | IC50 (µM) GST-VRK1 H3 phosphorylation (GST-VRK1 [2]) | Sensitivity of vaccinia virus B1R kinase to inhibitor (in words) [5] | IC50 (µM) GST-VRK2A Auto-phosphorylation (GST-VRK2A [3]; [6]) | IC50 (µM) GST-VRK2A H3 phosphorylation (GST-VRK2A [4]; [6]) | Effect on VRK1 kinase activity at 100 µM inhibitor (in words) (human VRK1) | Effect on VRK2 (VRK2A) kinase activity at 100 µM inhibitor (in words) (VRK2A) | other results
NC(=O)Nc1cc(-c2cccc(F)c2)sc1C(=O)N[C@H]1CCCNC1 [AZD7762, 5-(3-Fluorophenyl)-3-ureidothiophene-N-[(S)-piperidin-3-yl]-2-carboxamide] | No inhibition | No inhibition | – | – | – | – | – | IC50 (GST-VRK2A [3]): 40 ± 1.07 µM; IC50 (GST-VRK2A [4]): 24.4 ± 1.07 µM; IC50 (VRK2A): 30 µM; IC50 (CHK2): < 0.01 µM
COc1cc(OC)c(C=C2C(=O)Nc3ccccc32)c(OC)c1 [IC261] | – | – | not | – | – | – | – | IC50 (GST-VRK1 [1]): 121.4 ± 1.05 µM; IC50 (GST-VRK1 [2]): 55.9 ± 1.04 µM; IC50 (GST-VRK2A [3]; [6]): 11.1 ± 1.1 µM; IC50 (GST-VRK2A [4]; [6]): 14.7 ± 1.13 µM; IC50 (VRK2A): 10 µM; IC50 (CK1): 6 µM; IC50 (S6K): 6 µM; IC50 (MSK1): 6 µM
CC(=O)c1ccc(N2CCOCC2)cc1O [IC86621, 1-(2-Hydroxy-4-morpholin-4-yl-phenyl)ethanone] | No inhibition | No inhibition | – | No inhibition | No inhibition | no noticeable effect | no noticeable effect | IC50 (DNA-PKcs): 0.1 µM
O=c1cc(-c2cccc3c2Sc2ccccc2S3)oc(N2CCOCC2)c1 [KU55933, 2-(4-Morpholinyl)-6-(1-thianthrenyl)-4H-pyran-4-one] | No inhibition | No inhibition | sensitive | No inhibition | No inhibition | no noticeable effect | no noticeable effect | IC50 (ATM): […]
O=c1cc(N2CCOCC2)oc2c1ccc1ccccc12 [NU7026, 2-(Morpholin-4-yl)-benzo[h]chomen-4-one] | No inhibition | No inhibition | – | No inhibition | No inhibition | no noticeable effect | no noticeable effect | IC50 (DNA-PK): 0.23 µM
COc1cccc(-c2cc(=O)c3ccccc3o2)c1N [PD98059, 2’-Amino-3’-methoxyflavone] | No inhibition | No inhibition | – | No inhibition | No inhibition | None of them was able to induce a significant inhibition | None of them was able to induce a significant inhibition | IC50 (Mek1): […]
Cc1ccc(-c2nn(C(C)(C)C)c3ncnc(N)c23)cc1 [PP1, 4-amino-5-(4-methylphenyl)-7-(t-butyl)pyrazolo-d-3,4-pyridine] | No inhibition | No inhibition | – | No inhibition | No inhibition | no effect | no effect | IC50 (LCK): […]; IC50 (FYN): […]; IC50 (CK1δ): 1 µM
Cn1cc(C2=C(c3cn(CCCSC(=N)N)c4ccccc34)C(=O)NC2=O)c2ccccc21 [RO 31–8220, 2-(1-[3-(Amidinothio)propyl]-1H-indol-3-yl)-3-methanosulfonate salt] | – | – | sensitive | – | – | – | – | IC50 (GST-VRK1 [1]): 11.1 ± 1.16 µM; IC50 (GST-VRK1 [2]): 34.4 ± 1.05 µM; IC50 (GST-VRK2A [3]; [6]): 31.8 ± 1.15 µM; IC50 (GST-VRK2A [4]; [6]): 33.6 ± 1.04 µM; IC50 (PKC isoforms): 0.005 to 0.027 µM
CC[C@H](CO)Nc1nc(NCc2ccccc2)c2ncn(C(C)C)c2n1 [Roscovitine, 2-(R)-(1-Ethyl-2-hydroxyethylamino)-6-benzylamino-9-isopropylpurine] | No inhibition | No inhibition | – | – | – | – | – | Effect on VRK1 kinase activity at 250 µM inhibitor (in words) (human VRK1; inhibitor 250 µM): some noticeable effect
C[S+]([O-])c1ccc(-c2nc(-c3ccc(F)cc3)c(-c3ccncc3)[nH]2)cc1 (stereo not shown) [SB203580, 4-(4-Fluorophenyl)-2-(4-methylsulfinylphenyl)-5-(4-pyridyl)-1H-imidazole] | No inhibition | No inhibition | – | – | – | None of them was able to induce a significant inhibition | None of them was able to induce a significant inhibition | –
CN[C@@H]1C[C@H]2O[C@@](C)([C@@H]1OC)n1c3ccccc3c3c4c(c5c6ccccc6n2c5c31)C(=O)NC4 [Staurosporine, (9S,10R,11R,13R)-2,3,10,11,12,13-Hexahydro-10-methoxy-9-methyl-11-(methylamino)-9,13-epoxy-1H,9H-diindolo[1,2,3-gh:3',2',1'-lm]pyrrolo[3,4-j][1,7]benzodiazonin-1-one] | – | – | sensitive | – | – | – | – | Inhibition of VRK2A activity, concentration series (in words) (VRK2A; Fig. 3D, concentration not given): not inhibited
Cn1sc(=O)n(Cc2ccccc2)c1=O [TDZD-8, 4-benzil-2methyl-1,2,4-thiodiazolidine-3,5-dione] | Inhibition at 7.5 µM | Inhibition at 7.5 µM | – | No inhibition | No inhibition | more sensitive | – | Effect on VRK1 kinase activity at 5 µM inhibitor (in words) (human VRK1; inhibitor 5 µM, autophosphorylation or H3 phosphorylation): no significant inhibition; Effect on VRK1 kinase activity at 7.5 µM inhibitor (in words) (human VRK1; inhibitor 7.5 µM, autophosphorylation or H3 phosphorylation): almost completely inhibited; Effect on VRK2A kinase activity at 500 µM inhibitor (in words) (VRK2A; inhibitor 500 µM (not shown)): insensitive; IC50 (GSK-3β): 2 µM
O=c1nc(NCc2ccccc2)s[nH]1 [TDZD-20, 5-Benzylamino-3-oxo-2,3-dyhidro-1,2-4-thiadiazole] | No inhibition | No inhibition | – | No inhibition | No inhibition | not able to inhibit | insensitive; also recorded: not able to inhibit | Effect on VRK1 kinase activity at concentrations similar to those of TDZD-8 (in words) (human VRK1; similar concentrations (5 to 7.5 µM), Fig. S2B): no effect; IC50 (GSK-3β): 6.5 µM

— PMC3150407, “Differential Inhibitor Sensitivity between Human Kinases VRK1 and VRK2” (PLoS ONE, 2011)
